The subject of data set [1] is Sarcoma 180 ascites. Briefly: S180a screening (Sarcoma 180 ascites tumor model), increase in life span. As to conditions: for Surv.: survivors on day of evaluation. Format: in vivo, CFW mice. How it is done: CFW mice, averaging 20 g, are innoculated on day zero with 0.2 mL of a freshly prepared saline suspension (0.15 M NaCI) containing 1 × 10^7 tumor cells/mL, or a total of 2 x 10^6 cells. On day I, the mice are injected with the test compound in the selected medium (usually water). Six mice are used per test dose, with six doses normally being run.
Also, on day one, two types of controls (6 mice/set are employed: (1) Normal (1 set): 0.5 mL of the solvent medium used for the test compound, and (2) Positive control (1 set): cis-[Pt(NH3)2Cl2] in saline at 8 mg/kg.
The effectiveness of a compound is measured in terms of the increase in life span (ILS) of the test animals relative to the controls calculated from the day of tumor inoculation (day zero). The day of evaluation is arbitrarily taken as that day corresponding to twice the mean life-span of the normal controls. This sets a practical upper limit of 100% on the ILS attainable. For calculation purposes, survivors on the day of evaluation are considered to have died on that day. The % ILS is formulated as: [formula]
ILS values above 50% represent activity. The positive controls must have an ILS of ≧ 50% for the test to be valid.

In data set [2] the test system is L1210 leukemia. Nature of the data set: L1210 screening (L1210 leukemia tumor model), increase in life span. It is filed as in vivo, Female CDF1 mice. The protocol: Female CDF1 mice (16-22 g) are injected with a suspension of 1 x 10^6 tumor cells in 0.5 mL of 0.15 M saline on day zero. On day one, the mice receive the test compound in 0.5 mL of the chosen medium (usually water). Six mice were used for each test dose, with six doses normally being run. Normal controls (six mice) receive tumor on day zero and 0.5 mL of the test medium on day one. Positive controls (six mice) receive tumor on day zero and 8 mg/kg cisplatin in 0.5 mL of 0.15 M saline on day one. All compound doses are adjusted for the actual average weight of the mice involved. Testing is terminated at three times the normal control mean life span. The percent increase in lifespan (ILS) is calculated as follows: %ILS = [(mean life span (test)/mean life span(control)-I]x100 A 25% ILS or greater indicates activity. The maximum possible ILS is 200%. The positive control must have an ILS of S 25% for the test to be considered valid.
The tumor line is maintained by transfer of 5 x 10^4- cells in 0.1 mL saline every seven days. DBA/2 (18-22 g) mice are employed for tumor transfers

A short description of data set [3]: Toxicity testing: BUN (kidney toxicity). Format: in vivo, mice. The note with it: for BUN: change vs. controls. The protocol: (§1) (PVA = 2-phosphonovalerate). Based on the screening results, initial dosing was established at approximately twice the peak active dose in the SI80 screen. […] WBC was measured by lysing the red blood cells with 3% acetic acid and counting the white cells using a haemocytometer.
(§2) Data obtained for Na[Pt(trans-R,R-dach)(PVA)] was taken at 240 mg/kg. […] Average cage weights for the test mice were also taken over the seven day test period.

Data set [4] can be described thus: Toxicity testing: WBC (myelosuppression). Format: in vivo, mice. As to conditions: for WBC: change vs. controls. The protocol:
as §1, §2

A short description of data set [5]: Toxicity testing: hematocrit and average cage weights. It is filed as in vivo, mice. The note with it: 240 mg/kg. How it is done: (PVA = 2-phosphonovalerate). Based on the screening results, initial dosing was established at approximately twice the peak active dose in the SI80 screen. Both a cisplatin control, also run at twice the peak active dose, and a negative control experiment, were run for comparative purposes. BUN was measured by using a kit manufactured by Harleco (No. 64667). WBC was measured by lysing the red blood cells with 3% acetic acid and counting the white cells using a haemocytometer.
Data obtained for Na[Pt(trans-R,R-dach)(PVA)] was taken at 240 mg/kg. […] Myelosuppresion however, was apparent. The WBC depression for this compound was 63% relative to controls. […] Average cage weights for the test mice were also taken over the seven day test period. The mice lost an average of 5.9 g (27.3%) of body weight over this time.

The mark [6] stands for this setting: dose 40.00 mg/kg on day 1, vehicle water.
Setting [7] is: dose 80.00 mg/kg on day 1, vehicle water.
[8] abbreviates: dose 160.00 mg/kg on day 1, vehicle water.
Setting [9] is: dose 10.00 mg/kg on day 1, vehicle water.
[10] abbreviates: dose 10.00 mg/kg on day 1, vehicle water, survivors.
Where [11] appears, read: dose 20.00 mg/kg on day 1, vehicle water.
[12] abbreviates: dose 20.00 mg/kg on day 1, vehicle water, survivors.
Where [13] appears, read: dose 40.00 mg/kg on day 1, vehicle water, survivors.
[14] abbreviates: dose 80.00 mg/kg on day 1, vehicle water, survivors.
The mark [15] stands for this setting: dose 160.00 mg/kg on day 1, vehicle water, survivors.
The mark [16] stands for this setting: dose 320.00 mg/kg on day 1, vehicle water.
The mark [17] stands for this setting: dose 320.00 mg/kg on day 1, vehicle water, survivors.

Several values for one entry are separate records, joined by “and”; a condition that tells them apart may be missing. Identical values can stand only once.

In the case of `CCCC1C(=O)[O][Pt][O]P1(=O)[O-].NC1CCCCC1N.[Na+]` (mixture of isomers) [Ex 18, Na[Pt(trans-R,R-dach)(2-phosphonovaierate)]], the “%ILS” value in data set [1] (setting [6]) is recorded as 77%; in data set [1] (setting [7]), 92%; in data set [1] (setting [8]), 44%; in data set [2] (setting [9]), 36%; in data set [2] (setting [11]), 25%; in data set [2] (setting [6]), 33%. Also, the “%ILS” value in data set [2] (setting [7]) was determined as 33%; in data set [2] (setting [8]), 109%; in data set [2] (setting [16]), 24%. In addition, the Surv. is 1/ 6 in data set [1] (setting [6]); 5/ 6 in data set [1] (setting [7]); 1/ 6 in data set [1] (setting [8]); 0/ 6 in data set [2] (setting [10]); 0/ 6 in data set [2] (setting [12]); 0/ 6 in data set [2] (setting [13]). Further, the Surv. in data set [2] (setting [14]) is recorded as 0/ 6; in data set [2] (setting [15]), 0/ 6; in data set [2] (setting [17]) it was 1/ 6. In addition, in data set [3] (240 mg/kg), the “BUN decrease vs. controls” value is listed as 4%. In data set [3] (240 mg/kg, test mice), the “average BUN level” value amounted to 34.7 mg/dL. Moreover, the BUN in data set [3] (dose 240 mg/kg) is listed as -4%. Moreover, the kidney toxicity result in data set [3] (judged from BUN elevation) is reported as “not kidney toxic at this dose”. Moreover, the “WBC depression relative to controls” value in data set [4] (240 mg/kg) was found to be 63%. The WBC in data set [4] (dose 240 mg/kg) is reported as -63%. In data set [5], the “hematocrits (ratio of packed red blood cells to volume of whole blood)” value is reported as “low hematocrits”.

As to `N[C@@H]1CCCC[C@H]1N.O=C1[O][Pt][O]P1(=O)[O-].[Na+]` [Ex 20, Na[Pt(trans-R,R-dach)(phosphonoformate)]], the “%ILS” value was 6% in data set [1] (setting [9]); -5% in data set [1] (setting [11]); 7% in data set [1] (setting [6]); 18% in data set [1] (setting [7]); 59% in data set [1] (setting [8]); 55% in data set [1] (setting [16]). The “%ILS” value is recorded as -17% in data set [2] (setting [9]); -20% in data set [2] (setting [11]); -14% in data set [2] (setting [6]); -7% in data set [2] (setting [7]); 11% in data set [2] (setting [8]); 20% in data set [2] (setting [16]). Moreover, the Surv. in data set [1] (setting [9]), in data set [1] (setting [11]), in data set [1] (setting [6]), in data set [1] (setting [7]), in data set [1] (setting [8]) and in data set [1] (setting [16]) was 0/ 6 in each case. Further, the Surv. in data set [2] (setting [10]), in data set [2] (setting [12]), in data set [2] (setting [13]), in data set [2] (setting [14]), in data set [2] (setting [15]) and in data set [2] (setting [17]) was 0/ 6 throughout.

“Na[Pt(trans-R, R-dach)(2-phosphono-1,7-heptanedicarboxylate)] [Ex 23]”: the “%ILS” value is reported as 20% in data set [1] (setting [9]); 31% in data set [1] (setting [11]); 45% in data set [1] (setting [6]); 86% in data set [1] (setting [7]); 34% in data set [1] (setting [8]); -37% in data set [1] (setting [16]). For the same molecule, the “%ILS” value in data set [2] (setting [9]) is reported as 59%; in data set [2] (setting [11]) it was 67%; in data set [2] (setting [6]) it was 88%; in data set [2] (setting [7]) it was 133%; in data set [2] (setting [8]) it was 161%; in data set [2] (setting [16]), -32%. Further, the Surv. in data set [1] (setting [9]) is 0/ 6; in data set [1] (setting [11]) it was 0/ 6; in data set [1] (setting [6]), 2/ 6; in data set [1] (setting [7]), 4/ 6; in data set [1] (setting [8]), 4/ 6; in data set [1] (setting [16]) it was 1/ 6. Further, the Surv. is on record as 0/ 6 in data set [2] (setting [10]); 0/ 6 in data set [2] (setting [12]); 0/ 6 in data set [2] (setting [13]); 3/ 6 in data set [2] (setting [14]); 3/ 6 in data set [2] (setting [15]); 0/ 6 in data set [2] (setting [17]).

Turning to “cis-[Pt(NH3)2Cl2] [Cisplatin, reference compound]”, in data set [1] (positive control of the same test: cis-[Pt(NH3)2Cl2] in saline at 8 mg/kg on day 1, listed as POS. CONT., 8 mg/kg), the “POS. CONT. %ILS” value is 89% and 85% and 70% and 55% and 94% and 74% and 86% and 68%. The “POS. CONT. Surv.” value was 4/ 6 and 3/ 6 and 2/ 6 and 1/ 6 in data set [1] (positive control of the same test: cis-[Pt(NH3)2Cl2] in saline at 8 mg/kg on day 1, survivors, listed as POS. CONT., 8 mg/kg); 0/ 6 and 1/ 6 and 3/ 6 and 2/ 6 in data set [2] (positive control of the same test: 8 mg/kg cisplatin in 0.15 M saline on day 1, survivors, listed as POS. CONT.). In data set [3] (dose 15 mg/kg), the BUN entry is on record as “+98%”. Also, in data set [4] (dose 15 mg/kg), the WBC is -7%.

(Values after patent EP0290169A2, “Diamineplatinum complexes with phosphonocarboxylate and substituted phosphonocarboxylate ligands as antitumor agents” (ENGELHARD CORPORATION, priority 1987, dated 1988).)
